Calls of active or inactive are those of the source. No rule for the calls is given here.
System: CCRIS mutagenicity, Ames/micronucleus/aberration tests
Assay: CCRIS mutagenicity studies
[1] = Test System: AMES SALMONELLA TYPHIMURIUM, Strain/Indicator: TA100, Metabolic Activation: NONE, Method: STANDARD PLATE
[2] = Test System: AMES SALMONELLA TYPHIMURIUM, Strain/Indicator: TA1537, Metabolic Activation: NONE, Method: STANDARD PLATE

With `COc1cc(Oc2ccc(Cl)cc2Cl)ccc1[N+](=O)[O-]` the mutagenic call (Test System: AMES SALMONELLA TYPHIMURIUM, Strain/Indicator: TA98, Metabolic Activation: S-9, Method: STANDARD PLATE) was “inactive; negative”, the mutagenic call [1] was “active; positive” and the mutagenic call (Test System: AMES SALMONELLA TYPHIMURIUM, Strain/Indicator: TA100, Metabolic Activation: S-9, Method: STANDARD PLATE) was “inactive; negative”. The mutagenic call (Test System: AMES SALMONELLA TYPHIMURIUM, Strain/Indicator: TA100, Metabolic Activation: S-9 MIX, Method: STANDARD PLATE) was “inactive; negative”, the mutagenic call (Test System: AMES SALMONELLA TYPHIMURIUM, Strain/Indicator: YG1021, Metabolic Activation: NONE, Method: PREINCUBATION) was “active; positive” and the mutagenic call (Test System: AMES SALMONELLA TYPHIMURIUM, Strain/Indicator: YG1021, Metabolic Activation: RAT, LIVER, S-9, PCB, Method: PREINCUBATION) was “active; positive”. For the same compound, the mutagenic call (Test System: AMES SALMONELLA TYPHIMURIUM, Strain/Indicator: YG1021, Metabolic Activation: S-9, Method: STANDARD PLATE) was “inactive; negative”, the mutagenic call (Test System: AMES SALMONELLA TYPHIMURIUM, Strain/Indicator: YG1024, Metabolic Activation: S-9, Method: STANDARD PLATE) was “inactive; negative” and the mutagenic call (Test System: AMES SALMONELLA TYPHIMURIUM, Strain/Indicator: YG1026, Metabolic Activation: NONE, Method: PREINCUBATION) was “active; positive”. The mutagenic call (Test System: AMES SALMONELLA TYPHIMURIUM, Strain/Indicator: YG1026, Metabolic Activation: RAT, LIVER, S-9, PCB, Method: PREINCUBATION) was “active; positive”, the mutagenic call (Test System: AMES SALMONELLA TYPHIMURIUM, Strain/Indicator: YG1026, Metabolic Activation: S-9, Method: STANDARD PLATE) was “inactive; negative” and the mutagenic call (Test System: AMES SALMONELLA TYPHIMURIUM, Strain/Indicator: YG1029, Metabolic Activation: S-9, Method: STANDARD PLATE) was “inactive; negative”.

In the case of `C=CC1(C)OC(=O)N(c2cc(Cl)cc(Cl)c2)C1=O` (configuration not stated), the mutagenic call (End Point: IN VITRO MICRONUCLEUS, Test System: HUMAN HEPATOMA CELLS HEPG2, Metabolic Activation: NONE) is reported as “inactive; negative; authors report a slight increase but not statistically significant”.

`CC/C=C1\OC(=O)c2ccccc21` was tested, and the mutagenic call (Test System: AMES SALMONELLA TYPHIMURIUM, Strain/Indicator: TA97, Metabolic Activation: HAMSTER, LIVER, S-9, AROCLOR 1254 (10%), Method: PREINCUBATION) was “inactive; negative”, the mutagenic call (Test System: AMES SALMONELLA TYPHIMURIUM, Strain/Indicator: TA97, Metabolic Activation: NONE, Method: PREINCUBATION) was “inactive; negative” and the mutagenic call (Test System: AMES SALMONELLA TYPHIMURIUM, Strain/Indicator: TA97, Metabolic Activation: RAT, LIVER, S-9, AROCLOR 1254 (10%), Method: PREINCUBATION) was “inactive; negative”. The mutagenic call (Test System: AMES SALMONELLA TYPHIMURIUM, Strain/Indicator: TA98, Metabolic Activation: HAMSTER, LIVER, S-9, AROCLOR 1254 (10%), Method: PREINCUBATION) was “inactive; negative”, the mutagenic call (Test System: AMES SALMONELLA TYPHIMURIUM, Strain/Indicator: TA98, Metabolic Activation: NONE, Method: PREINCUBATION) was “inactive; negative” and the mutagenic call (Test System: AMES SALMONELLA TYPHIMURIUM, Strain/Indicator: TA98, Metabolic Activation: RAT, LIVER, S-9, AROCLOR 1254 (10%), Method: PREINCUBATION) was “inactive; negative”. The mutagenic call (Test System: AMES SALMONELLA TYPHIMURIUM, Strain/Indicator: TA100, Metabolic Activation: HAMSTER, LIVER, S-9, AROCLOR 1254 (10%), Method: PREINCUBATION) was “inactive; negative”, the mutagenic call (Test System: AMES SALMONELLA TYPHIMURIUM, Strain/Indicator: TA100, Metabolic Activation: NONE, Method: PREINCUBATION) was “inactive; negative” and the mutagenic call (Test System: AMES SALMONELLA TYPHIMURIUM, Strain/Indicator: TA100, Metabolic Activation: RAT, LIVER, S-9, AROCLOR 1254 (10%), Method: PREINCUBATION) was “active; positive”. The mutagenic call (Test System: AMES SALMONELLA TYPHIMURIUM, Strain/Indicator: TA1535, Metabolic Activation: HAMSTER, LIVER, S-9, AROCLOR 1254 (10%), Method: PREINCUBATION) was “inactive; negative”, the mutagenic call (Test System: AMES SALMONELLA TYPHIMURIUM, Strain/Indicator: TA1535, Metabolic Activation: NONE, Method: PREINCUBATION) was “inactive; negative” and the mutagenic call (Test System: AMES SALMONELLA TYPHIMURIUM, Strain/Indicator: TA1535, Metabolic Activation: RAT, LIVER, S-9, AROCLOR 1254 (10%), Method: PREINCUBATION) was “inactive; negative”.

In the case of `CN(C)CCNC(=O)c1ccc2nc3ccccc3c(N)c2c1`, the mutagenic call [2] is reported as “inactive; negative”.

`CN(N=O)C(=O)Nc1ccc(Br)cc1` was tested, and the mutagenic call (End Point: IN VITRO CHROMOSOMAL ABERRATIONS, Test System: CHINESE HAMSTER V79-E CELLS, Metabolic Activation: NONE) was “active; weakly positive”.

`CC(C)NNC(=O)c1ccncc1` was tested, and the mutagenic call (Test System: AMES SALMONELLA TYPHIMURIUM, Strain/Indicator: TA98, Metabolic Activation: NONE, Method: STANDARD PLATE) was “inactive; negative”, the mutagenic call (Test System: AMES SALMONELLA TYPHIMURIUM, Strain/Indicator: TA98, Metabolic Activation: RAT, LIVER, S-9, AROCLOR 1254, Method: STANDARD PLATE) was “inactive; negative” and the mutagenic call [1] was “inactive; negative”. The mutagenic call (Test System: AMES SALMONELLA TYPHIMURIUM, Strain/Indicator: TA100, Metabolic Activation: RAT, LIVER, S-9, AROCLOR 1254, Method: STANDARD PLATE) was “inactive; negative”, the mutagenic call (Test System: AMES SALMONELLA TYPHIMURIUM, Strain/Indicator: TA1535, Metabolic Activation: NONE, Method: STANDARD PLATE) was “inactive; negative” and the mutagenic call (Test System: AMES SALMONELLA TYPHIMURIUM, Strain/Indicator: TA1535, Metabolic Activation: RAT, LIVER, S-9, AROCLOR 1254, Method: STANDARD PLATE) was “inactive; negative”. For the same compound, the mutagenic call [2] was “inactive; negative” and the mutagenic call (Test System: AMES SALMONELLA TYPHIMURIUM, Strain/Indicator: TA1537, Metabolic Activation: RAT, LIVER, S-9, AROCLOR 1254, Method: STANDARD PLATE) was “inactive; negative”.

For `O=C1c2ccccc2C(=O)c2c1cc(O[C@H]1O[C@H](CO[C@@H]3OC[C@@H](O)[C@H](O)[C@H]3O)[C@@H](O)[C@H](O)[C@H]1O)c(CO)c2O`, the mutagenic call (Test System: AMES SALMONELLA TYPHIMURIUM, Strain/Indicator: TA98, Metabolic Activation: NONE, Method: PREINCUBATION (PH 6.5 OR 7.4)) was “inactive; negative”, the mutagenic call (Test System: AMES SALMONELLA TYPHIMURIUM, Strain/Indicator: TA98, Metabolic Activation: RAT, LIVER, S-9, SODIUM BARBITAL AND BETA-NAPHTHOFLAVONE, Method: PREINCUBATION (PH 6.5 OR 7.4)) was “inactive; negative” and the mutagenic call (Test System: AMES SALMONELLA TYPHIMURIUM, Strain/Indicator: TA100, Metabolic Activation: NONE, Method: PREINCUBATION (PH 6.5 OR 7.4)) was “active; positive”. The mutagenic call (Test System: AMES SALMONELLA TYPHIMURIUM, Strain/Indicator: TA100, Metabolic Activation: RAT, LIVER, S-9, SODIUM BARBITAL AND BETA-NAPHTHOFLAVONE, Method: PREINCUBATION) was “inactive; negative”.

In the case of `Cc1cccc2c1ccc1c3ccccc3ccc21`, the mutagenic call (Test System: AMES SALMONELLA TYPHIMURIUM, Strain/Indicator: TA100, Metabolic Activation: RAT, LIVER, MICROSOMES, 1-METHYLCHRYSENE, Method: STANDARD PLATE) is reported as “inactive; negative”, the mutagenic call (Test System: AMES SALMONELLA TYPHIMURIUM, Strain/Indicator: TA100, Metabolic Activation: RAT, LIVER, MICROSOMES, AROCLOR 1254, Method: STANDARD PLATE) is reported as “inactive; negative” and the mutagenic call (Test System: AMES SALMONELLA TYPHIMURIUM, Strain/Indicator: TA100, Metabolic Activation: RAT, LIVER, MICROSOMES, Method: STANDARD PLATE) is reported as “inactive; negative”.

Source: PubChem BioAssay AID1259407 (Chemical Carcinogenesis Research Information System (CCRIS), 2018)
